Results published in ChEMBL document CHEMBL1201862, “PubChem BioAssay data set” (2004).
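All cell lines were grown in 96-well plates and treated with compound for 48 hours. GI50 marks 50% less growth.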 Active and inactive are the calls of the source. Rule as the data show it: active = GI50 up to about 1.1 µM and inactive = higher.

What was measured:
Experiment in all cases: NCI tumour cell line growth inhibition, 48 h
[1] = system: HOP-92
[2] = system: OVCAR-4
[3] = system: UACC-62
[4] = system: CAKI-1
[5] = system: HCC 2998
[6] = system: M14
[7] = system: MDA-N
[8] = system: UACC-257
[9] = system: NCI/ADR-RES
[10] = system: OVCAR-3
[11] = system: SR
[12] = system: 786-0
[13] = system: SK-OV-3
[14] = system: MDA-MB-435
[15] = system: BT-549
[16] = system: A549
[17] = system: SW-620
[18] = system: IGROV-1
[19] = system: KM12
[20] = system: CCRF-CEM

Measured: GI50

O=C(CCc1ccc(O)c(O)c1)NCCc1ccccc1
inactive: [1] 48.3 µM | [2] 14.6 µM | [3] 24.5 µM | [4] 6.49 µM | [5] > 100 µM | [6] > 85.7 µM | [7] 19 µM | [8] > 79.4 µM | [9] 40.4 µM | [10] 30.1 µM | [11] 7.16 µM | [12] 31.6 µM | [13] 65.8 µM | [14] 15.2 µM | [15] 31.8 µM | [16] 76.9 µM | [17] > 100 µM | [18] 50.9 µM | [19] 49.9 µM | [20] 3.17 µM

CN1CCC(n2[nH]c(-c3ccccc3)c(Cc3ccccc3)c2=O)CC1 [BENZPIPERYLON]
inactive: [1] > 100 µM | [2] > 100 µM | [3] > 100 µM | [4] > 100 µM | [5] > 100 µM | [6] > 100 µM | [7] > 100 µM | [8] > 100 µM | [9] > 100 µM | [10] > 100 µM | [11] 33.3 µM | [12] > 100 µM | [13] > 100 µM | [14] > 100 µM | [15] > 100 µM | [16] > 100 µM | [17] > 100 µM | [18] 59.7 µM | [19] > 100 µM | [20] 37.9 µM
